Measurements reported in patent US4582821A, “Inhibition of cyclic nucleotide independent protein kinases” (E. I. Du Pont de Nemours and Company, priority 1983, dated 1986).

Columns and labels:
pp60^src = test: Immune complex phosphorylation by pp60src immunoprecipitates of RSV-transformed cells; format: biochemical, Rous sarcoma virus (RSV); conditions: 250 nmoles per mg protein
Procedure: In this experiment, Boc-LeuCH2 Br was tested as an inhibitor of pp60^src and p130^fps, the tyrosine-specific protein kinases encoded by the transforming genes of RSV and Fujinami sarcoma virus, respectively.
These viral gene products were partially purified by preparation of immune complexes substantially according to the technique described by Collett et al., Proc. Nat. Acad. Sci. USA 75:2021 (1978). In this procedure, immunoprecipitates are prepared by incubation of extracts of virus-transformed cells with tumor-bearing rabbit serum (TBR) and Staphylococcus protein A suspension (for RSV-transformed cells) or anti-gag serum and Staphylococcus protein A suspension (for FSV-transformed cells).
Assay mixtures contained, in a final volume of 70 μL, 100 μg of immune complex protein, 20 mM Hepes, pH 7.4, and 1 mM MnCl2. Phosphorylation was initiated by addition of 1 μM (4 μCi) [γ-^32 P] ATP. After 10 minutes at about 23°, reactions were terminated by pipetting 20 μL aliquots of assay mixture onto 2×2 cm squares of Whatman 3 MM filter paper, which were immediately suspended in 10% TCA/10 mM sodium pyrophosphate. Test mixtures contained 250 nmoles Boc-LeuCH2 Br per mg protein. Controls for the immunoprecipitation procedure were prepared by immunoprecipitating transformed cell extracts with normal serum. Values in parentheses represent specific phosphorylation induced by virus-transformed cells.

[1] = tested on: erythroleukemia cell line K-562; test: Tumor cell line growth inhibition, K-562; format: cell-based
Procedure: (§1) In this series of experiments, the tumor cell growth inhibitory capacity of various peptide halomethyl ketones was tested against lymphoma cell lines YAC-1 and MOLT-4, and against an erythroleukemia cell line, K-562. The lymphoma cell line YAC-1 is described by Kiessling, et al., Eur. J. Immunol. 5:112 (1975), and MOLT-4 is described by Minowada, et al., J. Natl. Cancer Inst. 49:891 (1972) and Nilsson, et al., Int. J. Cancer 15:321 (1975). The erythroleukemia cell line K-562 is described by Lozzio, et al., Leuk. Res. 3:363 (1979). In these experiments, cells were grown on standard media as 10 mL suspension cultures. Initial cell density was 10^5 cells/mL. At day 0, test compounds were introduced in ethanol; control cultures received an equal volume of ethanol. Cells were counted at the times indicated.

lymphoma cell line YAC-1 = test: Tumor cell line growth inhibition, YAC-1; format: cell-based
Procedure: as §1

[2] = tested on: EGF-mediated tyrosine phosphorylation in Triton extracts of A-431 cell membranes; test: Phosphoamino acid analysis of labeled Triton extracts of A-431 cell membranes; format: biochemical, human; conditions: for Total Phosphoprotein / P-serine radioactivity / P-threonine radioactivity / P-tyrosine radioactivity: 349 nmoles/mg protein; for Total Phosphoprotein: 1/7 aliquot
Procedure: Triton extracts of A-431 cell membranes, prepared substantially as described previously, containing 37.5 μg protein, were labeled with [γ-^32 P] ATP (5 μM, 5 μCi) for 3 minutes at 0° in the presence and absence of Boc-LeuCH2 Br (349 nmoles/mg protein). Protein samples were hydrolyzed and phosphoamino acids were separated by the following procedure.
After labeling, membrane proteins were treated with 10% trichloroacetic acid (TCA) containing 10 mM sodium pyrophosphate and 100 μg BSA. After incubation for one hour at 0°, the foregoing mixture was centrifuged at 3,000 rpm and the resulting pellet washed 3 times with 10% TCA/10 mM sodium pyrophosphate. After recentrifugation, the final pellet was washed with ethanol, dried under vacuum, and dissolved in 70 μL of 0.1N NaOH prior to transfer to glass test tubes containing 0.5 mL 6N hydrochloric acid. The tubes were sealed under vacuum and samples were hydrolyzed at 100° for one hour. The resulting hydrolysates were lyophilized, resuspended in 30 μL water and electrophoresed on Whatman 3MM paper for 3 hours at 3,000 V, at pH 3.5 in 5% acetic acid/0.5% pyridine. Phosphotyrosine, phosphoserine, and phosphothreonine (10 μg of each) were employed as markers. Following electrophoresis, spots corresponding to the foregoing phosphoamino acids were located by ninhydrin treatment, excised, and bleached with 6% hydrogen peroxide. Radioactivity of the spots was determined by scintillation counting and expressed as cpm. Total phosphoprotein of a 1/7 aliquot of each reaction mixture was determined as previously described.

p130^fps = target: T1, p130^fps (UniProt P00530+P03323); test: Casein phosphorylation by p130fps immunoprecipitates; format: biochemical, Fujinami sarcoma virus (FSV); conditions: for Casein Phosphorylation: 1 mg/mL casein
T1 construct: anti-gag serum and Staphylococcus protein A suspension (for FSV-transformed cells); viral gag-derived N-terminal portion (natural gag-fps fusion); expressed in transfected cells; immune complex with anti-gag serum and Staphylococcus protein A
Procedure: In a related experiment, the capacity of Boc-LeuCH2 Br to inhibit phosphorylation of casein by p130^fps was determined. These tests were conducted substantially as described above, except 1 mg/mL casein was added to assay mixtures as a substrate, and reactions were terminated by addition of 2.5 mM unlabeled ATP and immediate cooling to 0°. Phosphorylated casein was separated from immunoprecipitate suspensions by centrifugation at 3,000 xg for 3 minutes. The resulting pellets were resuspended in 70 μL of 10 mM Hepes, pH 7.5, and 20 μL aliquots were pipetted onto filter paper squares as previously described. […]

`CC(C)CC(NC(=O)OC(C)(C)C)C(=O)CBr` (centres unmarked) [Boc-LeuCH2 Br] was tested, and the “Immune Complex Phosphorylation” value (pp60^src; pp60 + control serum, no inhibitor 7872) was 7516 cpm, the “Immune Complex Phosphorylation, specific phosphorylation (in parentheses)” value (pp60^src; pp60src + TBR serum, no inhibitor 5112) was 3202 cpm and the “Immune Complex Phosphorylation” value (pp60^src; pp60src + TBR serum, no inhibitor 12984) was 10718 cpm. For the same compound, the “% Growth Relative to Control Cultures” value ([1]; 0.4 μg/mL, day 3) was 70%, the “% Growth Relative to Control Cultures” value ([1]; 0.4 μg/mL, day 7) was 85% and the “% Growth Relative to Control Cultures” value ([1]; 2.0 μg/mL, day 1) was 53%. For the same compound, the “% Growth Relative to Control Cultures” value ([1]; 2.0 μg/mL, day 2) was 22%, the “% Growth Relative to Control Cultures” value ([1]; 2.0 μg/mL, day 3) was 19% and the “% Growth Relative to Control Cultures” value ([1]; 2.0 μg/mL, day 4) was 16%. For the same compound, the “% Growth Relative to Control Cultures” value ([1]; 2.0 μg/mL, day 7) was 69%, the “% Growth Relative to Control Cultures” value ([1]; 10. μg/mL, day 1) was 33% and the “% Growth Relative to Control Cultures” value ([1]; 10. μg/mL, day 2) was 22%. For the same compound, the “% Growth Relative to Control Cultures” value ([1]; 10. μg/mL, day 3) was 7%, the “% Growth Relative to Control Cultures” value ([1]; 10. μg/mL, day 4) was 17% and the “% Growth Relative to Control Cultures” value ([1]; 10. μg/mL, day 7) was 13%. For the same compound, the “% Growth Relative to Control Cultures” value (lymphoma cell line YAC-1; 0.4 μg/mL, day 4) was 97%, the “% Growth Relative to Control Cultures” value (lymphoma cell line YAC-1; 2.0 μg/mL, day 1) was 42% and the “% Growth Relative to Control Cultures” value (lymphoma cell line YAC-1; 2.0 μg/mL, day 2) was 31%. The “% Growth Relative to Control Cultures” value (lymphoma cell line YAC-1; 2.0 μg/mL, day 3) was 28%, the “% Growth Relative to Control Cultures” value (lymphoma cell line YAC-1; 2.0 μg/mL, day 4) was 12% and the “% Growth Relative to Control Cultures” value (lymphoma cell line YAC-1; 2.0 μg/mL, day 7) was 28%. For the same compound, the “% Growth Relative to Control Cultures” value (lymphoma cell line YAC-1; 10. μg/mL, day 1) was 67%, the “% Growth Relative to Control Cultures” value (lymphoma cell line YAC-1; 10. μg/mL, day 2) was 32% and the “% Growth Relative to Control Cultures” value (lymphoma cell line YAC-1; 10. μg/mL, day 3) was 22%. For the same compound, the “% Growth Relative to Control Cultures” value (lymphoma cell line YAC-1; 10. μg/mL, day 4) was 13%, the “% Growth Relative to Control Cultures” value (lymphoma cell line YAC-1; 10. μg/mL, day 7) was 16% and the “Total Phosphoprotein” value ([2]; EGF absent, control 3408) was 2024 cpm. For the same compound, the P-serine radioactivity ([2]; EGF absent, control 328) was 300 cpm, the P-threonine radioactivity ([2]; EGF absent, control 1100) was 1180 cpm and the P-tyrosine radioactivity ([2]; EGF absent, control 1152) was 488 cpm. For the same compound, the “Total Phosphoprotein” value ([2]; EGF present, control 12204) was 5332 cpm, the P-serine radioactivity ([2]; EGF present, control 494) was 262 cpm and the P-threonine radioactivity ([2]; EGF present, control 1994) was 1270 cpm. For the same compound, the P-tyrosine radioactivity ([2]; EGF present, control 18000) was 5554 cpm, the “inhibition of tyrosine phosphorylation (in words)” value ([2]; both the presence and absence of EGF) was “pronounced inhibition of tyrosine phosphorylation” and the “Casein Phosphorylation” value (p130^fps; p130fps + anti-gag serum, no inhibitor 4442) was 618 cpm. The “Casein Phosphorylation” value (p130^fps; p130fps + control serum, no inhibitor 326) was 226 cpm and the “Percent Inhibition” value (p130^fps; casein-phosphorylating activity of p130fps, concentration not given) was 63%.
